Source: the kinase profiling compilation of Christmann-Franck et al. (2016)
Values belong to the molecule of their own block, whether it stands above or below them.

Legend:
Assay in all cases: radiometric filter-binding kinase assay
AURKB (human) = AURKB (human) (UniProt Q96GD4)
BTK (human) = BTK (human) (UniProt Q06187)
CDK2 CCNA2 (human) = CDK2 CCNA2 (human) (UniProt P20248+P24941)
CHEK1 (human) = CHEK1 (human) (UniProt O14757)
CSNK2A1 (human) = CSNK2A1 (human) (UniProt P68400)
DYRK2 (human) = DYRK2 (human) (UniProt Q92630)
EEF2K (human) = EEF2K (human) (UniProt O00418)
Chain of EEF2K (human) (O00418 whole entry, looked up): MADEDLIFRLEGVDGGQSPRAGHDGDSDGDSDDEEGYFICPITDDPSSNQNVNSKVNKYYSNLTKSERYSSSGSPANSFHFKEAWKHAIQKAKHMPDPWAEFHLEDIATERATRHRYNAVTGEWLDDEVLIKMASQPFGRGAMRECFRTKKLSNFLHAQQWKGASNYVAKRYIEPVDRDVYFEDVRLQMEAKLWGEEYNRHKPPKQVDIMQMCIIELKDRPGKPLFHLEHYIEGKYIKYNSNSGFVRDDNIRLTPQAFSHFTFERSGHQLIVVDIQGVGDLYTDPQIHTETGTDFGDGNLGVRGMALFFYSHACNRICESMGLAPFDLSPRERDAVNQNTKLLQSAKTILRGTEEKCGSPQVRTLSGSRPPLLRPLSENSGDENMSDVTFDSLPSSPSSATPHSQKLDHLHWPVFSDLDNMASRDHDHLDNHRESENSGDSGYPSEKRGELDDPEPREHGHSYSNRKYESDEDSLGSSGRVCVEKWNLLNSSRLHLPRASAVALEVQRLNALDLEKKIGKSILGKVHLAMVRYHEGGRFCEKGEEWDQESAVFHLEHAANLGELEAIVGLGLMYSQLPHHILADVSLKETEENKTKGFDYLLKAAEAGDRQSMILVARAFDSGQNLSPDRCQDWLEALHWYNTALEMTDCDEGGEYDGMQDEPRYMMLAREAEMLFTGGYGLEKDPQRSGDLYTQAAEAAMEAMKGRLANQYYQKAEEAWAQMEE

EPHA2 (human) = EPHA2 (human) (UniProt P29317)
FGFR1 (human) = FGFR1 (human) (UniProt P11362)
FLT1 (human) = FLT1 (human) (UniProt P17948)
INSRR (human) = INSRR (human) (UniProt P14616)
MAPK12 (human) = MAPK12 (human) (UniProt P53778)
MAPK15 (human) = MAPK15 (human) (UniProt Q8TD08)
Chain of MAPK15 (human) (Q8TD08 whole entry, looked up): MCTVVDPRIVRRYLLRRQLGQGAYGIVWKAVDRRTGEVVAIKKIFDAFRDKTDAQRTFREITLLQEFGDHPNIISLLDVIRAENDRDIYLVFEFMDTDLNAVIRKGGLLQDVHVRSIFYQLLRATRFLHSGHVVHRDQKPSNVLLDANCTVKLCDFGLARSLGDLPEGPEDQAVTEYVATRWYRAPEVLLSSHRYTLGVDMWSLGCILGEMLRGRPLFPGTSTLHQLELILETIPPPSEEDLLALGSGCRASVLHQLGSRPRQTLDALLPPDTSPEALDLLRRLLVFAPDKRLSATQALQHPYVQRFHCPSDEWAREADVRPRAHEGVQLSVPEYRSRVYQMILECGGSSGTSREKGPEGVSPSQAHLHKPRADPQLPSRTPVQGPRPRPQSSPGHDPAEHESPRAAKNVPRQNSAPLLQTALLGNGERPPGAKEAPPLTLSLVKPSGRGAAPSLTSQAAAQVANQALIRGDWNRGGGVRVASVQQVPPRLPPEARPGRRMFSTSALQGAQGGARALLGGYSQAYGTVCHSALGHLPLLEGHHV

MAPKAPK5 (human) = MAPKAPK5 (human) (UniProt Q8IW41)
MELK (human) = MELK (human) (UniProt Q14680)
Chain of MELK (human) (Q14680 whole entry, looked up): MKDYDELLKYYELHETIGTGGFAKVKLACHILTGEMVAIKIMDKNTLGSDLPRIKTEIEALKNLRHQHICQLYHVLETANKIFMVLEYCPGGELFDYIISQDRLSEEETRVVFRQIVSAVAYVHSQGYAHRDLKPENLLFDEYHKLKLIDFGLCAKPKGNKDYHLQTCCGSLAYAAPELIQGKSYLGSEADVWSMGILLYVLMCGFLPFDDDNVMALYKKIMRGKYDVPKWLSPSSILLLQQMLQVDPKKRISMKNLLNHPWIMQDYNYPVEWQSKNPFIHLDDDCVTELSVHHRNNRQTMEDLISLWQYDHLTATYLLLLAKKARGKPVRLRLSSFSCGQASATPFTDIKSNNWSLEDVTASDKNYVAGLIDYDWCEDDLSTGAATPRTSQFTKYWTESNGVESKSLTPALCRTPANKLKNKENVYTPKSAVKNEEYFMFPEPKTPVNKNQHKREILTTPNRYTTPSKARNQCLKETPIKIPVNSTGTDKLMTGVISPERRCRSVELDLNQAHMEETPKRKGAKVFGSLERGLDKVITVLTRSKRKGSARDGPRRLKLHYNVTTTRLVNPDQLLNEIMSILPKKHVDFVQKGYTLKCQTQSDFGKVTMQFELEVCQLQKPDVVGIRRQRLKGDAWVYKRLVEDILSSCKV

MST4 (human) = MST4 (human) (UniProt Q9P289)
Chain of MST4 (human) (Q9P289 whole entry, looked up): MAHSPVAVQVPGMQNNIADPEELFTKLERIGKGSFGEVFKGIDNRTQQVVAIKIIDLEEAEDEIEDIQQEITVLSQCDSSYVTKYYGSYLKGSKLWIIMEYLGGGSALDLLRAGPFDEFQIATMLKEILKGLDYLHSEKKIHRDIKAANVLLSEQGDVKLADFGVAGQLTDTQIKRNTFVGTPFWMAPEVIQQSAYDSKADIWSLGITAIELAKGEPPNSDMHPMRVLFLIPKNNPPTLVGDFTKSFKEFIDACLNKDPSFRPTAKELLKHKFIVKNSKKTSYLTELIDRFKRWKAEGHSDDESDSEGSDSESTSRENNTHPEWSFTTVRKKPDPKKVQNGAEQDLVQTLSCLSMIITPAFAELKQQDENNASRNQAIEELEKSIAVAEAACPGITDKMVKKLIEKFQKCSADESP

PHKG1 (human) = PHKG1 (human) (UniProt Q16816)
Chain of PHKG1 (human) (Q16816 whole entry, looked up): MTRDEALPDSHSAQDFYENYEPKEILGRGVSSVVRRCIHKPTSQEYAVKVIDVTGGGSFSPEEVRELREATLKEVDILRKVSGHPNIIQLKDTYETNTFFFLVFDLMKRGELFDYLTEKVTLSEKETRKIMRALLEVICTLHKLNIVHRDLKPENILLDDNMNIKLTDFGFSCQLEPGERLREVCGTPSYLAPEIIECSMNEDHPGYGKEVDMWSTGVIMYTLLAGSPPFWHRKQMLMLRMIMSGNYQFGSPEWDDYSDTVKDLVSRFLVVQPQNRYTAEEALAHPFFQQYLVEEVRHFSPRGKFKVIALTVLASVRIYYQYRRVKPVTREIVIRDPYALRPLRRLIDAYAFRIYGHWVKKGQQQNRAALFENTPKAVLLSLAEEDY

PIM2 (human) = PIM2 (human) (UniProt Q9P1W9)
Chain of PIM2 (human) (Q9P1W9 whole entry, looked up): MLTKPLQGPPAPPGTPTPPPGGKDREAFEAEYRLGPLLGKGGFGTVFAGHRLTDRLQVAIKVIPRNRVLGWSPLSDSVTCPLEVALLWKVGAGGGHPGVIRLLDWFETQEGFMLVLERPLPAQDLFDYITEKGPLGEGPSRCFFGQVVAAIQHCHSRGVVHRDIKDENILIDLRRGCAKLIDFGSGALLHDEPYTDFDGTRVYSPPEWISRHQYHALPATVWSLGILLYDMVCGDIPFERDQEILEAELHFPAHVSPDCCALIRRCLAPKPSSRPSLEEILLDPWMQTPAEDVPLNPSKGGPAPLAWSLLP

PIM3 (human) = PIM3 (human) (UniProt Q86V86)
PRKACA (human) = PRKACA (human) (UniProt P17612)
PRKCA (human) = PRKCA (human) (UniProt P17252)
RPS6KA3 KD1 KD2 (human) = RPS6KA3 KD1 KD2 (human) (UniProt P51812)
Chain of RPS6KA3 KD1 KD2 (human) (P51812 whole entry, looked up): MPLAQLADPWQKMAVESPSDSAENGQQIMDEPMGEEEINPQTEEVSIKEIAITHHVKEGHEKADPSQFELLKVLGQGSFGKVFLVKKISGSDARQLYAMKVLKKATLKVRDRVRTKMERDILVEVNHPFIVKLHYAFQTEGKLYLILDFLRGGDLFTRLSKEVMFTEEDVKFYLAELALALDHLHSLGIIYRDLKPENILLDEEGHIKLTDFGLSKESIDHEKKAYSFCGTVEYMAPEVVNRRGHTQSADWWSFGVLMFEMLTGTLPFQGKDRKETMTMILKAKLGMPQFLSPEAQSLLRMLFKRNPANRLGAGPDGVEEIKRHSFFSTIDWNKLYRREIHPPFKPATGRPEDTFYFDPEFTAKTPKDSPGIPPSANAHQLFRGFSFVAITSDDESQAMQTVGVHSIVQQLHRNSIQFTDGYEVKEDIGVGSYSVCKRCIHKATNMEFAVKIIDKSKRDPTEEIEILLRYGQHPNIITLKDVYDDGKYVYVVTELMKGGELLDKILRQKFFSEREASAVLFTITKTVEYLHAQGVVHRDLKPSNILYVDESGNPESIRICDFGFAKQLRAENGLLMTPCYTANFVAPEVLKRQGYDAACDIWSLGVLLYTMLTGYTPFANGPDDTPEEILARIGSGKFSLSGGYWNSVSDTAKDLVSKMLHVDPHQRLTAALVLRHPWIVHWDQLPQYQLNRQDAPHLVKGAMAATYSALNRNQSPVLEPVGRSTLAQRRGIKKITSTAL

[1] = tested on: SGK1 (human), O00141 [S422D]
SRPK1 (human) = SRPK1 (human) (UniProt Q96SB4)
Chain of SRPK1 (human) (Q96SB4 whole entry, looked up): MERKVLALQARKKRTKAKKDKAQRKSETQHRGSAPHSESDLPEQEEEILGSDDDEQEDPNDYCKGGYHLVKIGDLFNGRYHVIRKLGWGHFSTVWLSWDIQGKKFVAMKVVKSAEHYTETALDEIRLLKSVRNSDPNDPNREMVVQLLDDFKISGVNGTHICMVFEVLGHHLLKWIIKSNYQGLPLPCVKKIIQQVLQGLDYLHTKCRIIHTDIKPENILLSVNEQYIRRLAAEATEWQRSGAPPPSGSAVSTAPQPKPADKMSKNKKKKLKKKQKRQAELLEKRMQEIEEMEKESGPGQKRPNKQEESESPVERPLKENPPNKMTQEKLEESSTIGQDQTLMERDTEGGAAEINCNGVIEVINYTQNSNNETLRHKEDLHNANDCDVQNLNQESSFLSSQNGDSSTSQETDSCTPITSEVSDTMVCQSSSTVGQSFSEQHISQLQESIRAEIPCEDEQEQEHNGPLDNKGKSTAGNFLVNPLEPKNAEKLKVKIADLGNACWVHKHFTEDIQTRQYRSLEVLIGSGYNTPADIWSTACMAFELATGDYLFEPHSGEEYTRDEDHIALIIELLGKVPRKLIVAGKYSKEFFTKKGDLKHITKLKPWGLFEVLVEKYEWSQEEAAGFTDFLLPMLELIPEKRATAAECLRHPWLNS

Chain of CSNK2A1 (human) (P68400 whole entry, looked up): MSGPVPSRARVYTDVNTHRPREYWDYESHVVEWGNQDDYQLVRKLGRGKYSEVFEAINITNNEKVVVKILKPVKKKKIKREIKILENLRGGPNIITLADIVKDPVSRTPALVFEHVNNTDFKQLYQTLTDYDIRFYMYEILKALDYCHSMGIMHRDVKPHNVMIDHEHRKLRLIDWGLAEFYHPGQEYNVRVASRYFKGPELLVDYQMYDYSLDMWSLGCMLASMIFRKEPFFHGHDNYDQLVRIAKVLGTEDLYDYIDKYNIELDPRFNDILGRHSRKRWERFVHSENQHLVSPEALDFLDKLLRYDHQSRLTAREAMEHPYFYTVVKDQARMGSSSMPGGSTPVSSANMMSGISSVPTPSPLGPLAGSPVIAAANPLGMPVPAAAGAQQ

residual activity (AURKB (human); compound 1.0 µM): 110%
residual activity (AURKB (human); compound 10.0 µM): 100%
residual activity (BTK (human); compound 1.0 µM): 92%
residual activity (BTK (human); compound 10.0 µM): 95%
residual activity (CDK2 CCNA2 (human); compound 1.0 µM): 87%
residual activity (CDK2 CCNA2 (human); compound 10.0 µM): 81%
residual activity (CHEK1 (human); compound 1.0 µM): 102%
residual activity (CHEK1 (human); compound 10.0 µM): 120%
residual activity (CSNK2A1 (human); compound 1.0 µM): 84%
residual activity (CSNK2A1 (human); compound 10.0 µM): 79%
residual activity (DYRK2 (human); compound 1.0 µM): 103%
residual activity (DYRK2 (human); compound 10.0 µM): 111%
residual activity (EEF2K (human); compound 1.0 µM): 80%
residual activity (EPHA2 (human); compound 1.0 µM): 103%
residual activity (EPHA2 (human); compound 10.0 µM): 113%
residual activity (FGFR1 (human); compound 1.0 µM): 100%
residual activity (FGFR1 (human); compound 10.0 µM): 81%
residual activity (FLT1 (human); compound 1.0 µM): 84%
residual activity (FLT1 (human); compound 10.0 µM): 74%
residual activity (INSRR (human); compound 1.0 µM): 81%
residual activity (INSRR (human); compound 10.0 µM): 95%
residual activity (MAPK12 (human); compound 1.0 µM): 108%
residual activity (MAPK12 (human); compound 10.0 µM): 106%
residual activity (MAPKAPK5 (human); compound 10.0 µM): 39%
residual activity (MELK (human); compound 1.0 µM): 79%
residual activity (MELK (human); compound 10.0 µM): 85%
residual activity (MST4 (human); compound 1.0 µM): 104%
residual activity (MST4 (human); compound 10.0 µM): 83%
residual activity (PHKG1 (human); compound 1.0 µM): 109%
residual activity (PHKG1 (human); compound 10.0 µM): 96%
residual activity (PIM2 (human); compound 1.0 µM): 99%
residual activity (PIM2 (human); compound 10.0 µM): 106%
residual activity (PIM3 (human); compound 1.0 µM): 86%
residual activity (PIM3 (human); compound 10.0 µM): 72%
residual activity (PRKACA (human); compound 1.0 µM): 110%
residual activity (PRKACA (human); compound 10.0 µM): 86%
residual activity (PRKCA (human); compound 1.0 µM): 96%
residual activity (PRKCA (human); compound 10.0 µM): 88%
residual activity (RPS6KA3 KD1 KD2 (human); compound 1.0 µM): 94%
residual activity ([1]; compound 1.0 µM): 111%
residual activity ([1]; compound 10.0 µM): 109%
residual activity (SRPK1 (human); compound 1.0 µM): 96%
residual activity (SRPK1 (human); compound 10.0 µM): 87%
Compound: Cc1cc(SCc2sc(-c3ccc(C(F)(F)F)cc3)nc2C)ccc1OCC(=O)O
residual activity (MAPK15 (human); compound 1.0 µM): 103%
residual activity (MAPK15 (human); compound 10.0 µM): 109%

residual activity (BTK (human); compound 0.1 µM): 86%
residual activity (BTK (human); compound 1.0 µM): 29%
residual activity (BTK (human); compound 10.0 µM): 9%
residual activity (CDK2 CCNA2 (human); compound 0.1 µM): 63%
residual activity (CDK2 CCNA2 (human); compound 1.0 µM): 14%
residual activity (CDK2 CCNA2 (human); compound 10.0 µM): 6%
residual activity (CHEK1 (human); compound 0.1 µM): 85%
residual activity (CHEK1 (human); compound 1.0 µM): 4%
residual activity (CHEK1 (human); compound 10.0 µM): 1%
residual activity (CSNK2A1 (human); compound 0.1 µM): 93%
residual activity (CSNK2A1 (human); compound 1.0 µM): 65%
residual activity (CSNK2A1 (human); compound 10.0 µM): 21%
residual activity (DYRK2 (human); compound 0.1 µM): 19%
residual activity (DYRK2 (human); compound 1.0 µM): 2%
residual activity (DYRK2 (human); compound 10.0 µM): 0%
residual activity (EEF2K (human); compound 0.1 µM): 102%
residual activity (EEF2K (human); compound 1.0 µM): 86%
residual activity (EEF2K (human); compound 10.0 µM): 116%
residual activity (EPHA2 (human); compound 0.1 µM): 93%
residual activity (EPHA2 (human); compound 1.0 µM): 54%
residual activity (EPHA2 (human); compound 10.0 µM): 20%
residual activity (FGFR1 (human); compound 0.1 µM): 17%
residual activity (FGFR1 (human); compound 1.0 µM): 2%
residual activity (FGFR1 (human); compound 10.0 µM): 1%
residual activity (FLT1 (human); compound 0.1 µM): 7%
residual activity (FLT1 (human); compound 1.0 µM): 3%
residual activity (FLT1 (human); compound 10.0 µM): 1%
residual activity (INSRR (human); compound 0.1 µM): 35%
residual activity (INSRR (human); compound 1.0 µM): 16%
residual activity (INSRR (human); compound 10.0 µM): 5%
residual activity (MAPK12 (human); compound 0.1 µM): 93%
residual activity (MAPK12 (human); compound 1.0 µM): 86%
residual activity (MAPKAPK5 (human); compound 0.1 µM): 95%
residual activity (MAPKAPK5 (human); compound 1.0 µM): 50%
residual activity (MAPKAPK5 (human); compound 10.0 µM): 8%
residual activity (MELK (human); compound 0.1 µM): 16%
residual activity (MELK (human); compound 1.0 µM): 3%
residual activity (MELK (human); compound 10.0 µM): 0%
residual activity (MST4 (human); compound 1.0 µM): 18%
residual activity (MST4 (human); compound 10.0 µM): 21%
residual activity (PHKG1 (human); compound 0.1 µM): 13%
residual activity (PHKG1 (human); compound 1.0 µM): 1%
residual activity (PHKG1 (human); compound 10.0 µM): 0%
residual activity (PIM2 (human); compound 0.1 µM): 76%
residual activity (PIM2 (human); compound 1.0 µM): 34%
residual activity (PIM2 (human); compound 10.0 µM): 8%
residual activity (PIM3 (human); compound 0.1 µM): 30%
residual activity (PIM3 (human); compound 1.0 µM): 9%
residual activity (PIM3 (human); compound 10.0 µM): 7%
residual activity (PRKACA (human); compound 0.1 µM): 78%
residual activity (PRKACA (human); compound 1.0 µM): 66%
residual activity (PRKACA (human); compound 10.0 µM): 32%
residual activity (PRKCA (human); compound 0.1 µM): 106%
residual activity (PRKCA (human); compound 1.0 µM): 83%
residual activity (PRKCA (human); compound 10.0 µM): 27%
residual activity (RPS6KA3 KD1 KD2 (human); compound 0.1 µM): 38%
residual activity (RPS6KA3 KD1 KD2 (human); compound 1.0 µM): 32%
residual activity (RPS6KA3 KD1 KD2 (human); compound 10.0 µM): 22%
residual activity ([1]; compound 0.1 µM): 77%
residual activity ([1]; compound 1.0 µM): 32%
residual activity ([1]; compound 10.0 µM): 6%
residual activity (SRPK1 (human); compound 0.1 µM): 90%
residual activity (SRPK1 (human); compound 1.0 µM): 75%
residual activity (SRPK1 (human); compound 10.0 µM): 36%
Compound: NC(=O)Nc1ccc2c(c1)/C(=C/c1cc(-c3cccnc3)c[nH]1)C(=O)N2
residual activity (MAPK15 (human); compound 0.1 µM): 5%
residual activity (MAPK15 (human); compound 1.0 µM): 2%
residual activity (MAPK15 (human); compound 10.0 µM): 1%
